Experimental data as given in patent publication US20050282818A1, “Ubiquitin ligase inhibitors” (Rigel Pharmaceuticals, Inc., priority 2004, published 2005).

Assays:
APC11/APC2 = APC11/APC2 (Homo sapiens, UniProt Q9NYG5+Q9UJX6); experiment: APC-11/APC-2 ligase assay (APC auto ubiquitination); assay type: biochemical; conditions: APC assay
Description: For the assays described below, the TRAF6/Uev1A/UBC13 assay is the biochemical plate-based assay of TRAF6 ligase activity using Ubc13 as the E2 enzyme. The gel-based assay is the biochemical solution-based TRAF6 ligase assay (by SDS-PAGE and Western blot) to confirm the plate-based ELISA assay. The APC assay is an assay which is another E3 ligase (APC2/APC11) biochemical assay.
E3 (His APC11/APC2— “APC”) auto ubiquitination was measured as described in U.S. patent application Ser. No. 09/826,312 (Publication No. U.S. 2002 0042083 A1), which is incorporated by reference in its entirety. Details of the protocol are described below. Activity in the presence of the compound was determined relative to a parallel control in which only DMSO was added. Values of the IC50 were typically determined using 6 or 8 different concentrations of the compound, although as few as 2 concentrations may be used to approximate the IC50 value.
Nickel coated 96 well plates (Pierce 15242) were blocked for 1 hour with 100 μl of blocking buffer at room temperature. The plates were washed 4 times with 225 μl of 1 […]PBS and 80 μl of the reaction buffer were added that contained 100 ng/well of Flag ubiquitin. To this, 10 μl of the test compound diluted in DMSO were added. After the test compound was added, 10 μl of E1 (human), E2 (Ubch5c), and APC in Protein Buffer was added to obtain a final concentration of 5 ng/well of E1, 20 ng/well of E2 and 100 ng/well of APC. The plates were shaken for 10 minutes and incubated at room temperature for 1 hour. After incubation, the plates were washed 4 times with 225 μl of 1×PBS and 100 μl/well of Antibody Mix were added to each well. The plates were incubated at room temperature for another hour after which they were washed 4 times with 225 μl of 1×PBS and 100 μl/well of Lumino substrate were added to each well. The luminescence was measured by using a BMG luminescence microplate reader. The Blocking Buffer (1% Casein in 1×PBS) was stored at 4° C. until use.
The reaction buffer consisted of 62.5 mM Tris pH 7.6 (Trizma Base—Sigma T 8524), 3 mM MgCl2 (Magnesium Chloride—Sigma M 2393), 1 mM DTT (Sigma D 9779), 2.5 mM ATP (Roche Boehringer Mann Corp. 635 316), 100 ng/well of Flag ubiquitin, 0.1% BSA (Sigma A 7906), and 0.05% Tween 20 (Sigma P 7949).
The Protein Buffer consisted of 20 mM Tris pH 7.6, 10% glycerol (Sigma G 5516) and 1 mM DTT.
The antibody mix consisted of 0.25% BSA (Sigma A 7906) in 1×PBS, 1/50,000 anti Flag (Sigma F 3165), 1/100,000 of anti Mouse IgG HRP (Jackson Imrunoresearch #115 035 146).
The substrate mix consisted of SuperSignal Substrate from Pierce (catalog number 37070ZZ) and was prepared by mixing 100 ml of the peroxide solution, 100 ml of the enhancer solution and 100 ml of Milli Q® water.

TRAF6/Uev1A/Ubc13 = target: T1, TRAF6/Uev1A/Ubc13 (Homo sapiens, UniProt Q9Y4K3); experiment: TRAF6/Uev1A/Ubc13 plate-based ubiquitin ligase assay; assay type: biochemical
T1 sequence (Q9Y4K3 1-522): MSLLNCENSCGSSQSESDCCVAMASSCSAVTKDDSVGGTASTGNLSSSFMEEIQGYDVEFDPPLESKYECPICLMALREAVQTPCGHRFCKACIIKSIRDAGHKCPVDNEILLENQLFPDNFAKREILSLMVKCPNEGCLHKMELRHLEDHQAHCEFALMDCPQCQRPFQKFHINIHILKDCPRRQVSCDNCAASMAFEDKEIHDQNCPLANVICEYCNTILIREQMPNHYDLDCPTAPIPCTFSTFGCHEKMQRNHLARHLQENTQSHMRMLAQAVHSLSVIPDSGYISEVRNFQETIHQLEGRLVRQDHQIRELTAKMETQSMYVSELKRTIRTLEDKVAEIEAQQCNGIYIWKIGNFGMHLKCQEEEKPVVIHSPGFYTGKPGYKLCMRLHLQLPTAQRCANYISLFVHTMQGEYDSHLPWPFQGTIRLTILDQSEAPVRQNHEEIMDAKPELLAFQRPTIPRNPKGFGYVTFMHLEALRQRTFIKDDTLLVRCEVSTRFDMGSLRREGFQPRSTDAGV
In short: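 Ligase activity was read as luminescence from anti-Flag/HRP detection of Flag-ubiquitin bound to casein-blocked Ni-plates alongside His-ubiquitin after a 1 h room-temperature reaction. Buffer: 62.5 mM Tris pH 7.5, 6.25 mM MgCl2, 1.0 mM DTT, 2 μM ATP; E1, Uev1a/Ubc13 and TRAF6 added last to start. IC50s derived across compound concentrations.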

[1] = test system: ICAM-1 expression in A549 cells; experiment: ICAM assay (IL-1 induced ICAM-1/CD54 expression in A549 cells); assay type: cell-based, human; conditions: Homo sapiens, A549, ICAM assay
In short: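 Luminescent immunostaining (anti-CD54, then anti-mouse IgG, 1 h) quantifies ICAM-1 on A549 cells induced 4 h at 37° C by IL-1 (4 μl of 25 ng/ml added). Compound is added 1 h before the cytokine to cells plated overnight at 10,000 per well.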

Sequence of APC11/APC2 (Q9NYG5 whole entry): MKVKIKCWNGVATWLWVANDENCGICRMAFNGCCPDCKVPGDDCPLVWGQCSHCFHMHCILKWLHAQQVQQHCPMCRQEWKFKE
Sequence of APC11/APC2 (Q9UJX6 whole entry): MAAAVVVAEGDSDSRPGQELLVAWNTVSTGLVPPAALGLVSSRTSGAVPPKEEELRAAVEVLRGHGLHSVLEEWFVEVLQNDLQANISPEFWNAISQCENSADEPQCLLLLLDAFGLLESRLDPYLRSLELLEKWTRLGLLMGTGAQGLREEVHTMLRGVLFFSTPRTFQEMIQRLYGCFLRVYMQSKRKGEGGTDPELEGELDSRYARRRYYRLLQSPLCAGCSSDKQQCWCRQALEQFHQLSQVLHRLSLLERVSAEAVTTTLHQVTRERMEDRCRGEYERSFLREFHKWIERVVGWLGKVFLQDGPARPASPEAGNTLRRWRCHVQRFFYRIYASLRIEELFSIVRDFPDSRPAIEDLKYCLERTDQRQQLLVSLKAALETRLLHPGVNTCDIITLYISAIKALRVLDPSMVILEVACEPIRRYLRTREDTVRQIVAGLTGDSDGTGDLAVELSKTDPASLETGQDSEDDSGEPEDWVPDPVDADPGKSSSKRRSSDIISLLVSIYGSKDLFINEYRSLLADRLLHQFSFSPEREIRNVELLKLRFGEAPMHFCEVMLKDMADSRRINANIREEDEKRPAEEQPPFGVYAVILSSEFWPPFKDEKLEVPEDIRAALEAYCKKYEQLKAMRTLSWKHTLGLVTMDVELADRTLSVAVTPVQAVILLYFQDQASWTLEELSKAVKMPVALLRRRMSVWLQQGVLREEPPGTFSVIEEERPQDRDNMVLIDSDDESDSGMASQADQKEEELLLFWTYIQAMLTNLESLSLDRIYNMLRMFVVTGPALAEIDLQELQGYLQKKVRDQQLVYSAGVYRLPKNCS

SMILES	IC50 (APC11/APC2) [µM]	IC50 (TRAF6/Uev1A/Ubc13) [µM]	IC50 [1] [µM]
O=S(=O)(Nc1ccccc1F)c1ccc(N2CCOCC2)c2nonc12 [compound 372, N-(2-fluorophenyl)-7-(morpholin-4-yl)-2,1,3-benzoxadiazole-4-sulfonamide]	≥ 20	≥ 20	≥ 20
O=[N+]([O-])c1ccc(Nc2ccccc2OC(F)(F)F)c2nonc12 [compound 373]	1 to 20	≥ 20	1 to 20
O=S(=O)(Nc1ccncn1)c1ccc(Cl)c2nonc12 [compound 374, 7-chloro-N-1,3-pyrimidin-4-yl-2,1,3-benzoxadiazole-4-sulfonamide]	≥ 20	≥ 20	≥ 20
Nc1ccc(N2CCOCC2)c2nonc12 [compound 375, 7-(morpholin-4-yl)-2,1,3-benzoxadiazol-4-amine]	≥ 20	≥ 20	≥ 20
O=S(=O)(Nc1cccc(F)c1F)c1ccc(Sc2cccc3cccnc23)c2nonc12 [compound 376, N-(2,3-difluorophenyl)-7-(quinolin-8-ylthio)-2,1,3-benzoxadiazole-4-sulfonamide]	1 to 20	≥ 20	≥ 20
O=S(=O)(Nc1cccc(F)c1F)c1ccc(Sc2ccncn2)c2nonc12 [compound 377, N-(2,3-difluorophenyl)-7-(pyrimidin-4-ylthio)-2,1,3-benzoxadiazole-4-sulfonamide]	≥ 20	≥ 20	≥ 20
COc1ccccc1Sc1ccc(S(=O)(=O)Nc2cccc(F)c2F)c2nonc12 [compound 378, N-(2,3-difluorophenyl)-7-([2-methoxyphenyl]thio)-2,1,3-benzoxadiazole-4-sulfonamide]	1 to 20	≥ 20	≥ 20
O=S(=O)(Nc1cccc(F)c1F)c1ccc(Sc2cccc3ccccc23)c2nonc12 [compound 379, N-(2,3-difluorophenyl)-7-(naphthalen-1-ylthio)-2,1,3-benzoxadiazole-4-sulfonamide]	1 to 20	1 to 20	≥ 20
O=S(=O)(Nc1ncccc1OCc1ccccc1)c1ccc(Cl)c2nonc12 [compound 380, N-(3-benzyloxypyridin-2-yl)-7-chloro-2,1,3-benzoxadiazole-4-sulfonamide]	≥ 20	≥ 20	1 to 20
COc1ccc(C)cc1NS(=O)(=O)c1ccc(Cl)c2nonc12 [compound 381, 7-chloro-N-(2-methoxy-5-methylphenyl)-2,1,3-benzoxadiazole-4-sulfonamide]	≥ 20	≥ 20	1 to 20
O=S(=O)(Nc1ncccc1OCc1ccccc1)c1ccc(N2CCOCC2)c2nonc12 [compound 382, N-(3-benzyloxypyridin-2-yl)-7-(morpholin-4-yl)-2,1,3-benzoxadiazole-4-sulfonamide]	≥ 20	≥ 20	≥ 20
O=S(=O)(Nc1cccc2ccc(O)cc12)c1ccc(Cl)c2nonc12 [compound 383, 7-chloro-N-(7-hydroxynaphthalen-1-yl)-2,1,3-benzoxadiazole-4-sulfonamide]	1 to 20	1 to 20	1 to 20
COc1ccc(C)cc1NS(=O)(=O)c1ccc(Sc2cccc3cccnc23)c2nonc12 [compound 384, N-(2-methoxy-5-methylphenyl)-7-(quinolin-8-ylthio)-2,1,3-benzoxadiazole-4-sulfonamide]	≥ 20	1 to 20	≥ 20
O=S(=O)(Nc1cccc2ccc(O)cc12)c1ccc(N2CCOCC2)c2nonc12 [compound 385, N-(7-hydroxynaphthalen-1-yl)-7-(morpholin-4-yl)-2,1,3-benzoxadiazole-4-sulfonamide]	≥ 20	≥ 20	≥ 20
COc1cc(C)ccc1NS(=O)(=O)c1ccc(N2CCOCC2)c2nonc12 [compound 386, N-(2-methoxy-4-methylphenyl)-7-(morpholin-4-yl)-2,1,3-benzoxadiazole-4-sulfonamide]	≥ 20	≥ 20	≥ 20
Nc1cccc2c(NS(=O)(=O)c3ccc(Cl)c4nonc34)cccc12 [compound 387, N-(5-aminonaphthalen-1-yl)-7-chloro-2,1,3-benzoxadiazole-4-sulfonamide]	≥ 20	≥ 20	1 to 20
O=[N+]([O-])c1ccc(NS(=O)(=O)c2ccc(Cl)c3nonc23)c2ccccc12 [compound 388, 7-chloro-N-(4-nitronaphthalen-1-yl)-2,1,3-benzoxadiazole-4-sulfonamide]	≥ 20	≥ 20	≥ 20
Nc1cccc2c(NS(=O)(=O)c3ccc(N4CCOCC4)c4nonc34)cccc12 [compound 389]	≥ 20	≥ 20	≥ 20
Nc1cccc2c(NS(=O)(=O)c3ccc(Sc4cccc5cccnc45)c4nonc34)cccc12 [compound 390, N-(5-aminonaphthalen-1-yl)-7-(quinolin-8-ylthio)-2,1,3-benzoxadiazole-4-sulfonamide]	1 to 20	1 to 20	≥ 20
Nc1ccc(OS(=O)(=O)c2ccc(Cl)c3nonc23)c2ccccc12 [compound 391, 4-aminonaphthalen-1-yl 7-chloro-2,1,3-benzoxadiazole-4-sulfonate]	1 to 20	1 to 20	1 to 20
O=S(=O)(Nc1cccc2ccccc12)c1ccc(Cl)c2nonc12 [compound 392, 7-chloro-N-(naphthalen-1-yl)-2,1,3-benzoxadiazole-4-sulfonamide]	≥ 20	≥ 20	1 to 20
O=S(=O)(Nc1ccc(O)c2ccccc12)c1ccc(Cl)c2nonc12 [compound 393, 7-chloro-N-(4-hydroxynaphthalen-1-yl)-2,1,3-benzoxadiazole-4-sulfonamide]	1 to 20	1 to 20	1 to 20
O=S(=O)(Nc1ccc(OS(=O)(=O)c2ccc(Cl)c3nonc23)c2ccccc12)c1ccc(Cl)c2nonc12 [compound 394, 4-(7-chloro-2,1,3-benzoxadiazole-4-sulfonamido)naphthalen-1-yl 7-chloro-2,1,3-benzoxadiazole-4-sulfonate]	1 to 20	1 to 20	1 to 20
Nc1ccc(Nc2cccc(F)c2F)c2nonc12 [compound 396, 7-{(2,3-difluorophenyl)amino}-2,1,3-benzoxadiazol-4-amine]	≥ 20	≥ 20	≥ 20
